Measurements: ChEMBL document CHEMBL4421717, “Antagonists and agonists of bitter taste receptors and uses thereof” (2012)
Calls of active or inactive are those of the source. The calls are words filed in the database; no cut-off is given here.

How the values were obtained:
Assay type in all cases: functional, cell-based
[1] = biological target: T1, Taste receptor type 2 member 46 (Homo sapiens) (UniProt P59540); experiment: Agonist activity at recombinant human N-terminal rat ST3 receptor-fused TAS2R46 expressed in HEK293T cells co-expressing Galpha16gust44 assessed as effect on intracellular calcium level at 100 uM by FLIPR assay
T1 sequence (whole entry): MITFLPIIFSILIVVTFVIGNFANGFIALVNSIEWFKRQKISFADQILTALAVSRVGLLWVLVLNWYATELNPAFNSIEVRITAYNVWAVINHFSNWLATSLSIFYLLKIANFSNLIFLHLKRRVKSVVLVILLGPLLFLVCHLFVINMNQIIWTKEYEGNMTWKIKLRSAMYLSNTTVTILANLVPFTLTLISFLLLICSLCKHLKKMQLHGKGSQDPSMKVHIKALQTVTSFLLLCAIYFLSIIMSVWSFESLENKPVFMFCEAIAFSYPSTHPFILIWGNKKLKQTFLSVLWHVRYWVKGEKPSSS

[2] = biological target: T2, Taste receptor type 2 member 30 (Homo sapiens) (UniProt P59541); experiment: Antagonist activity at recombinant human N-terminal rat ST3 receptor-fused TAS2R47 expressed in HEK293T cells co-expressing Galpha16gust44 assessed as inhibition of brucine-induced intracellular calcium level at 100 uM by FLIPR assay
T2 sequence (whole entry): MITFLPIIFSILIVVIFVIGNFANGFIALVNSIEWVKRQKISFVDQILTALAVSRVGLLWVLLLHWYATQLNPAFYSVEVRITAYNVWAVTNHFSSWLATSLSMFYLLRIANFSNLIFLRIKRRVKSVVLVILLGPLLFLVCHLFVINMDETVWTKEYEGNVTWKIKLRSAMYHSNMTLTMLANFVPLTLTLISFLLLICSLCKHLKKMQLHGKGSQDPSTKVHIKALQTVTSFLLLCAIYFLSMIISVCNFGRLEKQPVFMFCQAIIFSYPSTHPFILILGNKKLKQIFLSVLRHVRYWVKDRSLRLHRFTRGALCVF

[3] = biological target: T3, Taste receptor type 2 member 46 (Homo sapiens, UniProt P59540); experiment: Antagonist activity at recombinant human N-terminal rat ST3 receptor-fused TAS2R46 expressed in HEK293T cells co-expressing Galpha16gust44 assessed as inhibition of 3 uM strychnine-induced intracellular calcium level 100 uM by FLIPR assay
T3 sequence (P59540 whole entry): T1 sequence (whole entry)

[4] = biological target: T4, Taste receptor type 2 member 10 (Homo sapiens) (UniProt Q9NYW0); experiment: Activity at recombinant human N-terminal rat ST3 receptor-fused TAS2R10 expressed in HEK293T cells co-expressing Galpha16gust44 assessed as effect on strychnine-induced intracellular calcium level at 100 uM by FLIPR assay
T4 sequence (whole entry): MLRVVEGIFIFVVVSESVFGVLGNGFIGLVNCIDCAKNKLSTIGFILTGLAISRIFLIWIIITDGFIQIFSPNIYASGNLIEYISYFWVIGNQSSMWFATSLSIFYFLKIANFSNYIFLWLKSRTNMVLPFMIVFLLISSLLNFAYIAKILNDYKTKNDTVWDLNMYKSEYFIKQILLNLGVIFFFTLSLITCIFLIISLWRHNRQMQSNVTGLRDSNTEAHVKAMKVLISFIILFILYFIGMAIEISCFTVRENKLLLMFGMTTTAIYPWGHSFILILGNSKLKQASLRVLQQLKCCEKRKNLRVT

[5] = biological target: T4, Taste receptor type 2 member 10 (Homo sapiens); experiment: Agonist activity at recombinant human N-terminal rat ST3 receptor-fused TAS2R10 expressed in HEK293T cells co-expressing Galpha16gust44 assessed as effect on intracellular calcium level at 100 uM by FLIPR assay
[6] = biological target: T5, Taste receptor type 2 member 16 (Homo sapiens) (UniProt Q9NYV7); experiment: Activity at recombinant human N-terminal rat ST3 receptor-fused TAS2R16 expressed in HEK293T cells co-expressing Galpha16gust44 assessed as effect on D-salicin-induced intracellular calcium level at 100 uM by FLIPR assay
T5 sequence (whole entry): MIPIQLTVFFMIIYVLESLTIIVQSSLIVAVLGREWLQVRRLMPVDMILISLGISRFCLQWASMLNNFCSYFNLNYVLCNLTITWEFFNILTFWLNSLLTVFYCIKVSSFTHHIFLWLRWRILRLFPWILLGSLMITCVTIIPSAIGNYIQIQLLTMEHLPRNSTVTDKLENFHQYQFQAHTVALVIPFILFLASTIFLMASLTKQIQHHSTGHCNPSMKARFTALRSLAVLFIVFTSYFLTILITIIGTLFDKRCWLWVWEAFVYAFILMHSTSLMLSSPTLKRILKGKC

[7] = biological target: T6, Taste receptor type 2 member 38 (Homo sapiens) (UniProt P59533); experiment: Activity at recombinant human N-terminal rat ST3 receptor-fused TAS2R38 expressed in HEK293T cells co-expressing Galpha16gust44 assessed as effect on phenylthiocarbamide-induced intracellular calcium level at 100 uM by FLIPR assay
T6 sequence (whole entry): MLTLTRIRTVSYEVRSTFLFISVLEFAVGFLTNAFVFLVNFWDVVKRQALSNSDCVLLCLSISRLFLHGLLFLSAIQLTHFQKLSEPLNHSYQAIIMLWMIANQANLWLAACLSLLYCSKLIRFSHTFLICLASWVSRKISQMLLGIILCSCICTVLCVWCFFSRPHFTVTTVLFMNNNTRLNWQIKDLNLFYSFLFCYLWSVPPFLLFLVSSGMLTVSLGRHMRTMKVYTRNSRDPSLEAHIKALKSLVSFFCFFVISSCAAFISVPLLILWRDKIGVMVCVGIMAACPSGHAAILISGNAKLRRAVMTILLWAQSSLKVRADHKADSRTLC

[8] = biological target: T7, Taste receptor type 2 member 13 (Homo sapiens) (UniProt Q9NYV9); experiment: Activity at recombinant human N-terminal rat ST3 receptor-fused TAS2R13 expressed in HEK293T cells co-expressing Galpha16gust44 assessed as effect on denatonium benzoate-induced intracellular calcium level at 100 uM by FLIPR assay
T7 sequence (whole entry): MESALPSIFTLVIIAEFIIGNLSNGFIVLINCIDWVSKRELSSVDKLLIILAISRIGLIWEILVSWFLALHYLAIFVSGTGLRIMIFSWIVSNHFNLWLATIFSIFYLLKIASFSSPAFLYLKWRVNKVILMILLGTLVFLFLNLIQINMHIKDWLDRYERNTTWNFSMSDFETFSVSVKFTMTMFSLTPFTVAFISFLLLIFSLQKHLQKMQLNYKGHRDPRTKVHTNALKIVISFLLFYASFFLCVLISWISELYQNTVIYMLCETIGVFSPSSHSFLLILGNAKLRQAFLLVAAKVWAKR

In the case of C/C1=C\C[C@H](O)/C(C)=C/[C@H]2OC(=O)[C@@H](C)C2CC1 (stereo partly specified), the Activity [1] is reported as “inactive”, the inhibition [2] is reported as “Active” and the IC50 [3] is reported as 15.3 µM. The Activity [4] was “inactive”, the Activity [5] was “Active” and the Activity [6] was “inactive”. For the same molecule, the Activity [7] was “inactive” and the Activity [8] was “inactive”.

For C/C1=C\C[C@H](O)[C@@H](C)C[C@H]2OC(=O)[C@@H](C)C2CC1 (stereo partly specified), the Activity [1] was “Active”, the inhibition [2] was 100% and the IC50 [3] was 84.9 µM. The Activity [4] was “inactive”, the Activity [5] was “Active” and the Activity [6] was “inactive”. For the same molecule, the Activity [7] was “inactive” and the Activity [8] was “inactive”.
